Results published in publication PMC5625810, “Chiglitazar Preferentially Regulates Gene Expression via Configuration-Restricted Binding and Phosphorylation Inhibition of PPARγ” (PPAR Research, 2017).

Molecular target: T1, PPARγ (Homo sapiens, UniProt P37231)
T1 construct: gene PPARG
T1 sequence (P37231 231-505 limits assumed): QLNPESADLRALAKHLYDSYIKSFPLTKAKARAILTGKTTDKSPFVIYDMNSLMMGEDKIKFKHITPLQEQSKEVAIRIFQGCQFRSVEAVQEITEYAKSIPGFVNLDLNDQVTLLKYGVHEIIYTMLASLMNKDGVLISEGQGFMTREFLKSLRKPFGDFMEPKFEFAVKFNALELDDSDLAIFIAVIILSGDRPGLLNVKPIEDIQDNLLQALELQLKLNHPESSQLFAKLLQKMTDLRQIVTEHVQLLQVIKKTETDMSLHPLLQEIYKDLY
Experiment: AlphaScreen cofactor peptide recruitment on purified LBD ([…]); cell reporter AC50 […] separately
Format: biochemical

## CN(CCOc1ccc(CC2SC(=O)NC2=O)cc1)c1ccccn1 (stereo not shown) [Ros, rosiglitazone]
  AlphaScreen cofactor peptide recruitment on purified LBD (2 μM); cell reporter A: The inhibition was partially and differentially restored upon additions of the three ligands
